# Data as given in patent US20180051284A1, “INHIBITORS OF MIR-17-92 CLUSTER FOR ANTI-TUMOR ACTIVITY IN MULTIPLE MYELOMA AND OTHER MALIGNANCIES” (priority 2014, published 2018).
# l = locked nucleic acid (LNA); d = 2'-deoxy (DNA)
# Columns and labels:
# [1] = tested on: miR-17-92 primary transcripts and mature miRNA family members; test: q-RT-PCR after transfectant reagents-free (gymnotic) exposure; format: cell-based, Human; details: six days gymnotic exposure, 1 and 2,5 μM; two MM cell lines (NCI-H929); vs saline vehicle
# Procedure: Cells were seeded at low plating density in order to reach confluence on the final day of the experiments (day 6). Cell number at plating ranged from 0.5 to 2.5×10^3 in 96-well plates, from 2.5 to 10×10^3 in 12-well plates and from 1 to 3×10^4 in 6-well plates.
# The LNA/DNA Gapmers were used at concentrations ranging from 0.1 to 20 μM.
# Reverse transcription (RT) of both primary and mature miRNAs was performed using TaqMan® MicroRNA Assays, following a procedure for multiplexing the RT step (Life Technologies, Publication Part Number 4465407). Briefly, 500 ng of total RNA, prepared with the TRIzol® Reagent (Invitrogen), underwent reverse transcription by the Taq-Man® MicroRNA RT Kit. In this reaction, the RT primer pool was composed by the individual RT primers for each microRNA belonging to the miR-17-92 cluster and two RT primers to allow the reverse transcription of the miR-17-92 primary miRNA. Real-time PCR was performed using TaqMan® MicroRNA Assays together with the TaqMan® Universal PCR Master Mix on an ViiA7 System (Life Technologies). Both primary and mature microRNAs expressions were relatively quantified using the 2-ΔΔCt method (Applied Biosystems User Bulletin No. 2), and expressed as the relative quantity of target miRNA normalized to the RNU44 (assay ID 001094) housekeeping gene. […] Relative expression was calculated using the comparative cross threshold (Ct) method.
# AMO1 cells = test: Combination with proteasome inhibitors or melphalan, 7-AAD cell viability, combination index; format: cell-based, Human; details: for CI value of combination with Bortezomib / CI value of combination with Carfilzomib / CI value of combination with Melphalan: AMO1, 6 days
# Procedure: Bortezomib (PS-341, catalog n° S1013) and Carfilzomib (PR-171, catalog n°S2853) were purchased from Selleck. Combination between miR-17-92 LNA gapmer_06 and proteasome inhibitors was tested in AMO1 cells. 1×10^3 cells were plating in 96-well plates. Bortezomib was used at concentrations ranging from 2 nM to 3.5 nM. Carfilzomib was used at concentrations ranging from 0.4 to 0.7 nM. Measurement of synergistic index (SI) was determined with the following formula: SI=(effect induced by miR-17-92 LNA gapmers and proteasome inhibitors in combination)/effect of miR-17-92 LNA gapmers) +(effect of proteasome inhibitors). Interactions were considered synergistic when the SI was >1.
# Melphalan was purchased from Sigma Aldrich (catalog n°M2011). Combination between miR-17-92 LNA gapmer_06 and melphalan was tested in AMO1 cells. Cell number at plating was 1×10^3 in 96-well plates. Melphalan was used at concentrations ranging from 0.5 μM to 2 μM. Measurement of synergistic index (SI) was determined with the following formula: SI=(effect induced by miR-17-92 LNA gapmers and melphalan in combination)/(effect of miR-17-92 LNA gapmers)+(effect of melphalan). Interactions were considered synergistic when the SI was >1.
# 7-aminoactinomycin was used to evaluate cell viability. The staining was performed according to manufacturer's instructions.
# AMO1 cells were exposed for 6 days to LNA gapmers_06 or each of Bortezomib, Carfilzomib, Melphalan or to combinations of LNA gapmer_06 and each of these drugs.
# Cells viability was calculated by flow cytometric analysis of 7-AAD staining and the percentage of living cell was compared to the untreated cells.
# In Tables 3-5 tests with the respective combinations performed simultaneously are reported. The effect of LNA gapmer_06 was determined separately for Bortezomib, Carfilzomib, and Melphalan explaining the slightly different values. CI (combination index) values are shown (CI<1 synergism, CI=1 additive, […]). For each monotherapy different doses and combinations were tested. Combination index were calculated using the CalcuSyn software.
substance,measurement,setting,value
"gapmer_06: LNA/DNA gapmer, SEQ ID 4 (14 mer): +T*+A*+C*T*T*G*C*T*T*G*G*+C*+T*+T; + LNA, * phosphorothioate (antisense TACTTGCTTGGCTT; sugars from the 5' end l3 d8 l3, all phosphorothioate, methylation of C not given here)",downregulation of primary transcript and mature single miRNAs (q-RT-PCR),[1],"downregulation of primary transcript as well as mature single miRNAs, in a dose dependent manner"
same,interaction with Bortezomib to induce cell death,"AMO1 cells; AMO1 cells, 6 days, combination with Bortezomib",synergizes
same,interaction with Carfilzomib to induce cell death,"AMO1 cells; AMO1 cells, 6 days, combination with Carfilzomib",synergizes
same,interaction with Melphalan to induce cell death,"AMO1 cells; AMO1 cells, 6 days, combination with Melphalan",synergizes
same,CI value of combination with Bortezomib,AMO1 cells; Bortezomib 0.0035 μm + miR-17-92 LNA gapmer 0.5 μl,0.759
same,CI value of combination with Bortezomib,AMO1 cells; Bortezomib 0.0035 μm + miR-17-92 LNA gapmer 0.75 μl,0.418
same,CI value of combination with Bortezomib,AMO1 cells; Bortezomib 0.0035 μm + miR-17-92 LNA gapmer 1 μl,0.342
same,CI value of combination with Bortezomib,AMO1 cells; Bortezomib 0.0035 μm + miR-17-92 LNA gapmer 1.25 μl,0.036
same,CI value of combination with Carfilzomib,AMO1 cells; Carfilzomib 0.0004 μm + miR-17-92 LNA gapmer 1.25 μl,0.89
same,CI value of combination with Carfilzomib,AMO1 cells; Carfilzomib 0.0005 μm + miR-17-92 LNA gapmer 1.25 μl,0.55
same,CI value of combination with Carfilzomib,AMO1 cells; Carfilzomib 0.0006 μm + miR-17-92 LNA gapmer 1.25 μl,0.50
same,CI value of combination with Carfilzomib,AMO1 cells; Carfilzomib 0.0007 μm + miR-17-92 LNA gapmer 1.25 μl,0.39
same,CI value of combination with Melphalan,AMO1 cells; Melphala 1.5 μm + miR-17-92 LNA gapmer 0.5 μl,0.78
same,CI value of combination with Melphalan,AMO1 cells; Melphala 1.5 μm + miR-17-92 LNA gapmer 0.75 μl,0.99
same,CI value of combination with Melphalan,AMO1 cells; Melphala 1.5 μm + miR-17-92 LNA gapmer 1 μl,0.65
same,CI value of combination with Melphalan,AMO1 cells; Melphala 1.5 μm + miR-17-92 LNA gapmer 1.25 μl,0.56
same,CI value of combination with Melphalan,AMO1 cells; Melphala 1.75 μm + miR-17-92 LNA gapmer 0.5 μl,0.66
same,CI value of combination with Melphalan,AMO1 cells; Melphala 1.75 μm + miR-17-92 LNA gapmer 0.75 μl,0.89
same,CI value of combination with Melphalan,AMO1 cells; Melphala 1.75 μm + miR-17-92 LNA gapmer 1 μl,0.56
same,CI value of combination with Melphalan,AMO1 cells; Melphala 1.75 μm + miR-17-92 LNA gapmer 1.25 μl,0.47
same,CI value of combination with Melphalan,AMO1 cells; Melphala 2 μm + miR-17-92 LNA gapmer 0.5 μl,0.51
same,CI value of combination with Melphalan,AMO1 cells; Melphala 2 μm + miR-17-92 LNA gapmer 0.75 μl,0.59
same,CI value of combination with Melphalan,AMO1 cells; Melphala 2 μm + miR-17-92 LNA gapmer 1 μl,0.46
same,CI value of combination with Melphalan,AMO1 cells; Melphala 2 μm + miR-17-92 LNA gapmer 1.25 μl,0.26
